The experiment concerns the target T1, KRAS G12C (Homo sapiens, UniProt P01116, G12C).
T1 construct: KRAS G12C (amino acid region: 1-169)
The experiment in a line: Inhibitory activity on the KRAS G12C nucleotide (GDP-GTP) exchange reaction. The class given is biochemical. As to conditions: Bodipy FL GDP-bound KRAS G12C 25 nM; preincubation at 25° C. for 4 hours; SOS1 100 nM, GppNHp 1 μM, reaction for 30 minutes. In a few lines: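 Bodipy FL-GDP-loaded KRAS G12C (aa 1-169, 25 nM) preincubated with compound 4 h at 25 °C in pH 7.5 Tris buffer, 5% DMSO; exchange started with SOS1 (aa 564-1049, 100 nM) and 1 μM GppNHp for 30 min. Fluorescence change (ex 485/em 520 nm) normalized to DMSO and no-GppNHp controls; IC50 calculated.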

SMILES strings stand for the structures.

T1 sequence (P01116 1-169 isoform P01116-2 G12C): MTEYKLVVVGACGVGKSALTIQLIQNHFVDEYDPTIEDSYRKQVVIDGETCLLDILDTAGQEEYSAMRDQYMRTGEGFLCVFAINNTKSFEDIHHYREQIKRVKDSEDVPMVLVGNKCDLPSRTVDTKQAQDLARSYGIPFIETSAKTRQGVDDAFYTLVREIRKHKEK

Turning to `Cc1nc(CNc2n[nH]c3cc(Cl)c(C(C)(C)C)cc23)n(C(C)C)c1C(=O)NC1CN(C(=O)/C=C/CN2CCCCC2)C1` [Example 79, (E)-2-(((5-(tert-butyl)-6-chloro-1H-indazol-3-yl)amino)methyl)-1-isopropyl-4-methyl-N-(1-(4-(piperidin-1-yl)but-2-enoyl)azetidin-3-yl)-1H-imidazole-5-carboxamide], it took 122 nM to reach half-maximal inhibition (IC50).

With `Cc1nc(CNc2n[nH]c3cc(Cl)c(C(C)(C)C)cc23)n(C)c1C(=O)NC1CN(C(=O)/C=C/CN(C)C)C1` [Example 80, (E)-2-(((5-(tert-butyl)-6-chloro-1H-indazol-3-yl)amino)methyl)-N-(1-(4-(dimethylamino)but-2-enoyl)azetidin-3-yl)-1,4-dimethyl-1H-imidazole-5-carboxamide], the IC50 was determined as 63 nM.

For the compound `C/C=C/C(=O)N1CC(NC(=O)c2c(C)nc(CNc3n[nH]c4cc(Cl)c(C(C)(C)C)cc34)n2C(C)C)C1` [Example 81, (E)-N-(1-(but-2-enoyl)azetidin-3-yl)-2-(((5-(tert-butyl)-6-chloro-1H-indazol-3-yl)amino)methyl)-1-isopropyl-4-methyl-1H-imidazole-5-carboxamide], the IC50 worked out at 2630 nM.

In the case of `CC#CC(=O)N1CC(NC(=O)c2c(C)nc(CNc3n[nH]c4cc(Cl)c(C(C)(C)C)cc34)n2C(C)C)C1` [Example 82, N-(1-(buty-2-noyl)azetidin-3-yl)-2-(((5-(tert-butyl)-6-chloro-1H-indazol-3-yl)amino)methyl)-1-isopropyl-4-methyl-1H-imidazole-5-carboxamide], the IC50 turned out to be 209 nM.

Take `Cc1nc(CNc2n[nH]c3cc(Cl)c(C(C)(C)C)cc23)n(C(C)C)c1C(=O)NC1CN(C(=O)/C=C\Cl)C1` [Example 83, (Z)-2-(((5-(tert-butyl)-6-chloro-1H-indazol-3-yl)amino)methyl)-N-(1-(3-chloroacryloyl)azetidin-3-yl)-1-isopropyl-4-methyl-1H-imidazole-5-carboxamide]: the IC50 amounted to 2350 nM.

Take `CC(C)n1c(CNc2n[nH]c3cc(Cl)c(C(C)(C)C)cc23)nc(C(F)F)c1C(=O)NC1CN(C(=O)/C=C/CN(C)C)C1` [Example 84, (E)-2-(((5-(tert-butyl)-6-chloro-1H-indazol-3-yl)amino)methyl)-4-(difluoromethyl)-N-(1-(4-(dimethylamino)but-2-enoyl)azetidin-3-yl)-1-isopropyl-1H-imidazole-5-carboxamide]: inhibition was half-maximal at 63 nM (IC50).

Consider `COC/C=C/C(=O)N1CC(NC(=O)c2c(C)nc(CNc3n[nH]c4cc(Cl)c(C(C)(C)C)cc34)n2C(C)C)C1` [Example 85, (E)-2-(((5-(tert-butyl)-6-chloro-1H-indazol-3-yl)amino)methyl)-1-isopropyl-N-(1-(4-methoxybut-2-enoyl)azetidin-3-yl)-4-methyl-1H-imidazole-5-carboxamide], for which the IC50 is 196 nM.

As for `C=CS(=O)(=O)N1CC(NC(=O)c2c(C)nc(CNc3n[nH]c4cc(Cl)c(C(C)(C)C)cc34)n2C(C)C)C1` [Example 86, 2-(((5-(tert-butyl)-6-chloro-1H-indazol-3-yl)amino)methyl)-1-isopropyl-4-methyl-N-(1-(vinylsulfonyl)azetidin-3-yl)-1H-imidazole-5-carboxamide], the 50% inhibitory concentration (IC50) worked out at 58 nM.

`C=CC(=O)N1CC(NC(=O)c2c(Cl)nc(CNc3n[nH]c4cc(Cl)c(C(C)(C)C)cc34)n2CCCC)C1` [Example 87, N-(1-acryloylazetidin-3-yl)-1-butyl-2-(((5-(tert-butyl)-6-chloro-1H-indazol-3-yl)amino)methyl)-4-chloro-1H-imidazole-5-carboxamide] showed an IC50 of 14 nM.

On to `C=CC(=O)N1CC(NC(=O)c2cnc(CNc3n[nH]c4cc(Cl)c(C(C)(C)C)cc34)n2Cc2cc(OC)cc(OC)c2)C1` [Example 88, N-(1-acryloylazetidin-3-yl)-2-(((5-(tert-butyl)-6-chloro-1H-indazol-3-yl)amino)methyl)-1-(3,5-dimethoxybenzyl)-1H-imidazole-5-carboxamide], for which the midpoint of inhibition, the IC50, lay at 158 nM.

In turn, `C=CC(=O)N1CC(NC(=O)c2c(Cl)nc(CNc3n[nH]c4cc(Cl)c(C(C)(C)C)cc34)n2CC(C)C)C1` [Example 89, N-(1-acryloylazetidin-3-yl)-2-(((5-(tert-butyl)-6-chloro-1H-indazol-3-yl)amino)methyl)-4-chloro-1-isobutyl-1H-imidazole-5-carboxamide] came in with an IC50 of 7 nM.

The compound `C=CC(=O)N1CC(NC(=O)c2c(Cl)nc(CNc3n[nH]c4cc(Cl)c(C(C)(C)C)cc34)n2CCOC)C1` [Example 90, N-(1-acryloylazetidin-3-yl)-2-(((5-(tert-butyl)-6-chloro-1H-indazol-3-yl)amino)methyl)-4-chloro-1-(2-methoxyethyl)-1H-imidazole-5-carboxamide] yielded an IC50 of 6 nM.

Turning to `C=CC(=O)N1CC(NC(=O)c2c(C(F)F)nc(CNc3n[nH]c4cc(Cl)c(C(C)(C)C)cc34)n2C2CCN(C)C2)C1` (stereo not shown) [Example 91, N-(1-acryloylazetidin-3-yl)-2-(((5-(tert-butyl)-6-chloro-1H-indazol-3-yl)amino)methyl)-4-(difluoromethyl)-1-(1-methylpyrrolidin-3-yl)-1H-imidazole-5-carboxamide], the IC50 came out at 7 nM.

Take `C=CC(=O)N1CC(NC(=O)c2c(C(F)F)nc(CNc3n[nH]c4cc(Cl)c(C(C)(C)C)cc34)n2C2CCN(CC)C2)C1` (stereo not shown) [Example 92, N-(1-acryloylazetidin-3-yl)-2-(((5-(tert-butyl)-6-chloro-1H-indazol-3-yl)amino)methyl)-4-(difluoromethyl)-1-(1-ethylpyrrolidin-3-yl)-1H-imidazole-5-carboxamide]: the midpoint of inhibition, the IC50, lay at 10 nM.

The compound `C=CC(=O)N1CC(NC(=O)c2c(Cl)nc(CNc3n[nH]c4cc(Cl)c(C(C)(C)C)cc34)n2-c2ccccn2)C1` [Example 94, N-(1-acryloylazetidin-3-yl)-2-(((5-(tert-butyl)-6-chloro-1H-indazol-3-yl)amino)methyl)-4-chloro-1-(pyridin-2-yl)-1H-imidazole-5-carboxamide] registered an IC50 of 118 nM.

`C=CC(=O)N1CC(NC(=O)c2c(C(F)F)nc(CNc3n[nH]c4cc(Cl)c(C(C)(C)C)cc34)n2CC2CCCN2C(C)C)C1` (stereo not shown) [Example 95, N-(1-acryloylazetidin-3-yl)-2-(((5-(tert-butyl)-6-chloro-1H-indazol-3-yl)amino)methyl)-4-(difluoromethyl)-1-((1-isopropylpyrrolidine-2-yl)methyl)-1H-imidazole-5-carboxamide] yielded a concentration for half-maximal inhibition (IC50) of 44 nM.

Take `C=CC(=O)N1CC(NC(=O)c2c(C(F)F)nc(CNc3n[nH]c4cc(Cl)c(C(C)(C)C)cc34)n2C2CCN(C(C)=O)C2)C1` (stereo not shown) [Example 96, 1-(1-Acetylpyrrolidin-3-yl)-N-(1-acryloylazetidin-3-yl)-2-(((5-(tert-butyl)-6-chloro-1H-indazol-3-yl)amino)methyl)-4-(difluoromethyl)-1H-imidazole-5-carboxamide]: the midpoint of inhibition, the IC50, lay at 4 nM.

Regarding `C=CC(=O)N1CC(NC(=O)c2c(Cl)nc(CNc3n[nH]c4cc(Cl)c(C(C)(C)C)cc34)n2[C@H]2CCOC2)C1` [Example 97, (S)-N-(1-acryloylazetidin-3-yl)-2-(((5-(tert-butyl)-6-chloro-1H-indazol-3-yl)amino)methyl)-4-chloro-1-(tetrahydrofuran-3-yl)-1H-imidazole-5-carboxamide], the IC50 was 4 nM.

The compound `C=CC(=O)N1CC(NC(=O)c2c(Cl)nc(CNc3n[nH]c4cc(Cl)c(C(C)(C)C)cc34)n2C2CC=CC2)C1` [Example 98, N-(1-acryloylazetidin-3-yl)-2-(((5-(tert-butyl)-6-chloro-1H-indazol-3-yl)amino)methyl)-4-chloro-1-(cyclopent-3-en-1-yl)-1H-imidazole-5-carboxamide] registered an IC50 of 7 nM.

The compound `C=CC(=O)N1CC(NC(=O)c2c(Cl)nc(CNc3n[nH]c4cc(Cl)c(C(C)(C)C)cc34)n2[C@@H]2C[C@@H](O)[C@@H](O)C2)C1` [Example 99] returned an IC50 of 7 nM.

`C=CC(=O)N1CC(NC(=O)c2c(Cl)nc(CNc3n[nH]c4cc(Cl)c(C(C)(C)C)cc34)n2CC(F)F)C1` [Example 100, N-(1-acryloylazetidin-3-yl)-2-(((5-(tert-butyl)-6-chloro-1H-indazol-3-yl)amino)methyl)-4-chloro-1-(2,2-difluoroethyl)-1H-imidazole-5-carboxamide]: the IC50 amounted to 14 nM.

Compound `C=CC(=O)N1CC(NC(=O)c2c(Cl)nc(CNc3n[nH]c4cc(Cl)c(C(C)(C)C)cc34)n2C2CCOCC2)C1` [Example 101, N-(1-acryloylazetidin-3-yl)-2-(((5-(tert-butyl)-6-chloro-1H-indazol-3-yl)amino)methyl)-4-chloro-1-(tetrahydro-2H-pyran-4-yl)-1H-imidazole-5-carboxamide] yielded an IC50 of 7 nM.

`C=CC(=O)N1CC(NC(=O)c2c(Cl)nc(CNc3n[nH]c4cc(Cl)c(C(C)(C)C)cc34)n2[C@@H]2CCOC2)C1` [Example 102, (R)-N-(1-acryloylazetidin-3-yl)-2-(((5-(tert-butyl)-6-chloro-1H-indazol-3-yl)amino)methyl)-4-chloro-1-(tetrahydrofuran-3-yl)-1H-imidazole-5-carboxamide]: half-maximal inhibition (IC50) required 5 nM.

`C=CC(=O)N1CC(NC(=O)c2c(Cl)nc(CNc3n[nH]c4cc(Cl)c(C(C)(C)C)cc34)n2C2CCN(C)CC2)C1` [Example 103, N-(1-acryloylazetidin-3-yl)-2-(((5-(tert-butyl)-6-chloro-1H-indazol-3-yl)amino)methyl)-4-chloro-1-(1-methylpiperidin-4-yl)-1H-imidazole-5-carboxamide] yielded an IC50 of 5 nM.

The compound `C=CC(=O)N1CC(NC(=O)c2c(Cl)nc(CNc3n[nH]c4cc(Cl)c(C(C)(C)C)cc34)n2C2CCCOC2)C1` (stereo not shown) [Example 104, N-(1-acryloylazetidin-3-yl)-2-(((5-(tert-butyl)-6-chloro-1H-indazol-3-yl)amino)methyl)-4-chloro-1-(tetrahydro-2H-pyran-3-yl)-1H-imidazole-5-carboxamide] returned an IC50 of 9 nM.

The record behind these values is US20230181536A1, “ANTICANCER COMBINATION THERAPY WITH N-(1-ACRYLOYL-AZETIDIN-3-YL)-2-((1H-INDAZOL-3-YL)AMINO)METHYL)-1H-IMIDAZOLE-5-CARBOXAMIDE INHIBITOR OF KRAS-G12C” (TAIHO PHARMACEUTICAL CO., LTD., priority 2020, published 2023).
